# Experimental data from patent EP0376166A1, “Condensed quinoline system compound and process of preparation thereof” (MECT CORPORATION, priority 1988, dated 1990).
# Key:
# [1] = tested on: P-388; assay: Prolongation of life span in P-388 implanted mice; assay type: in vivo, CDF mouse; settings: for cure: cured mice per group of 6; for response vs control in vivo at 3.12 mg/kg: dosage 3.12 mg/kg; for response vs control in vivo at 6.25 mg/kg: dosage 6.25 mg/kg
# Method: Animal used: CDF mouse (6 mice/group) Tumor: P-388 Number of implanted cells: 10⁶ cells/mouse Implanted site: i.p. Day of administration: Day 1 and Day 5 Dosage: LD₅₀ or 400 mg/kg/day at the maximum
# [2] = tested on: KB Cell; assay: Inhibition of multiplication (growth) of KB cells, in vitro; assay type: cell-based, human; settings: concentration for 50% growth inhibition vs control; for IC50: Homo sapiens, 72 h, compound added Day 1, cells counted Day 4, read-out: Conc.(ED50)
# Method: KB cells, carcinomatous cell tumors, were transferred to in vitro floatation incubator systems, and added respectively with compounds of Examples 1 to 33. The results of cultivation added with these compounds were compared with the results of the control which was not added with any compound.
# Cell used: KB Cell (Originating from human mouth epidermal cancer) Culture medium: Eagles minimal essential medium (MEM) supplemented with 10% calf serum Cultivation: 37°C carbon dioxide gas incubator (5% CO₂)
# Day 0: KB cells were diluted in the culture medium to adjust the KB cell density to 2 x 10⁴/ml. Three ml of the cell suspension was inoculated in each of 60 mm plastic dishes. Two dishes per standard dosage were used. Day 1: Test compound was added to the medium so that the final concentrations were set to 100, 30, 10, 3 and 1 µg/ml. Day 4: Cells were scraped off from the dish using trypsin, and the cell number was countered using a Corter counter.
# In generally accordance with the stipulations set forth by the National Cancer Institute (NCI), U.S.A., the concentration of compound necessary for exerting 50% growth inhibition (ED₅₀) compared to the control was determined. A compound was judged as effective when ED₅₀ was less than 4 µg/ml.
# [3] = P388, ip, T/C %, dosage 50 mg/kg, Day 1 and Day 5, P-388 10⁶ cells/mouse i.p., read-out: Ratio of Life Prolongation (%)
# [4] = P388, ip, T/C %, dosage 100 mg/kg, Day 1 and Day 5, P-388 10⁶ cells/mouse i.p., read-out: Ratio of Life Prolongation (%)
# [5] = P388, ip, T/C %, dosage 200 mg/kg, Day 1 and Day 5, P-388 10⁶ cells/mouse i.p., read-out: Ratio of Life Prolongation (%)
# [6] = P388, ip, T/C %, dosage 400 mg/kg, Day 1 and Day 5, P-388 10⁶ cells/mouse i.p., read-out: Ratio of Life Prolongation (%)
# [7] = P388, ip, T/C %, dosage 12.5 mg/kg, Day 1 and Day 5, P-388 10⁶ cells/mouse i.p., read-out: Ratio of Life Prolongation (%)
# [8] = P388, ip, T/C %, dosage 25 mg/kg, Day 1 and Day 5, P-388 10⁶ cells/mouse i.p., read-out: Ratio of Life Prolongation (%)
# [9] = P388, ip, T/C %, Day 1 and Day 5, P-388 10⁶ cells/mouse i.p., read-out: Ratio of Life Prolongation (%)
compound,measurement,setting,value
"6-(4-methanesulfonamide-anilino)-indeno[3,2-b]quinoline [Compound 5]",Ratio of Life Prolongation (%),"[1]; T/C %, dosage 25 mg/kg, Day 1 and Day 5, P-388 10⁶ cells/mouse i.p.",140%
same,Ratio of Life Prolongation (%),"[1]; T/C %, dosage 50 mg/kg, Day 1 and Day 5, P-388 10⁶ cells/mouse i.p.",135%
same,Ratio of Life Prolongation (%),"[1]; T/C %, dosage 100 mg/kg, Day 1 and Day 5, P-388 10⁶ cells/mouse i.p.",163%
same,Ratio of Life Prolongation (%),"[1]; T/C %, dosage 200 mg/kg, Day 1 and Day 5, P-388 10⁶ cells/mouse i.p.",172%
same,Ratio of Life Prolongation (%),"[1]; T/C %, dosage 400 mg/kg, Day 1 and Day 5, P-388 10⁶ cells/mouse i.p.",165%
same,Conc.(ED50),"[2]; compound added Day 1, cells counted Day 4, 4320 min",< 0.3 mg/L
"COc1cc(NS(C)(=O)=O)ccc1Nc1c2c(nc3c(C)cccc13)-c1c(C)cccc1C2 [Compound 1, 6-4-(methanesulfonamide-2-methoxyanilino)-1,10-dimethylindeno[3,2-b]quinoline]",response vs control in vivo at 50 mg/kg,[1]; [3],210%
same,response vs control in vivo at 100 mg/kg,[1]; [4],290%
same,response vs control in vivo at 200 mg/kg,[1]; [5],240%
same,cure,[1]; dosage 100 mg/kg,1/6
same,cure,[1]; dosage 200 mg/kg,1/6
same,IC50,[2],< 0.3 mg/L
COc1cc(NS(C)(=O)=O)ccc1Nc1c2c(nc3c(C)cccc13)-c1ccccc1C2 [Compound 2],response vs control in vivo at 100 mg/kg,[1]; [4],257%
same,response vs control in vivo at 200 mg/kg,[1]; [5],99%
same,response vs control in vivo at 400 mg/kg,[1]; [6],97%
same,cure,[1]; dosage 100 mg/kg,1/6
same,IC50,[2],< 0.3 mg/L
COC(=O)Nc1ccc(Nc2c3c(nc4ccccc24)-c2ccccc2C3)c(OC)c1 [Compound 3],response vs control in vivo at 100 mg/kg,[1]; [4],151%
same,response vs control in vivo at 200 mg/kg,[1]; [5],97%
same,response vs control in vivo at 400 mg/kg,[1]; [6],0%
same,IC50,[2],< 0.3 mg/L
COc1cc(N)ccc1Nc1c2c(nc3ccccc13)-c1ccccc1C2 [Compound 4],response vs control in vivo at 12.5 mg/kg,[1]; [7],134%
same,response vs control in vivo at 25 mg/kg,[1]; [8],168%
same,response vs control in vivo at 50 mg/kg,[1]; [3],210%
same,IC50,[2],< 0.3 mg/L
"CN(C)c1cc(NS(C)(=O)=O)ccc1Nc1c2c(nc3ccccc13)-c1ccccc1C2 [Compound 6, 6-(4-methanesulfonamide-2-dimethylaminoanilino)-indeno[3,2-b]quinoline]",response vs control in vivo at 100 mg/kg,[1]; [4],169%
same,response vs control in vivo at 200 mg/kg,[1]; [5],247%
same,response vs control in vivo at 400 mg/kg,[1]; [6],148%
same,cure,[1]; dosage 200 mg/kg,2/6
same,IC50,[2],< 0.3 mg/L
COc1cc(NCS(=O)O)ccc1Nc1c2c(nc3ccccc13)-c1ccccc1C2 [Compound 7],response vs control in vivo at 50 mg/kg,[1]; [3],111%
same,response vs control in vivo at 100 mg/kg,[1]; [4],108%
same,response vs control in vivo at 200 mg/kg,[1]; [5],111%
same,IC50,[2],< 0.3 mg/L
COc1cc(NCC(=O)O)ccc1Nc1c2c(nc3ccccc13)-c1ccccc1C2 [Compound 8],response vs control in vivo at 100 mg/kg,[1]; [4],175%
same,response vs control in vivo at 200 mg/kg,[1]; [5],178%
same,response vs control in vivo at 400 mg/kg,[1]; [6],155%
same,IC50,[2],< 0.3 mg/L
COc1cc(NS(C)(=O)=O)ccc1Nc1c2cccc(C)c2nc2c1[nH]c1ccccc12 [Compound 9],response vs control in vivo at 1.56 mg/kg,"[1]; P388, ip, T/C %, dosage 1.56 mg/kg, Day 1 and Day 5, P-388 10⁶ cells/mouse i.p., read-out: Ratio of Life Prolongation (%)",131%
same,response vs control in vivo at 3.12 mg/kg,[1]; [9],165%
same,response vs control in vivo at 6.25 mg/kg,[1]; [9],168%
same,response vs control in vivo at 12.5 mg/kg,[1]; [7],198%
same,response vs control in vivo at 25 mg/kg,[1]; [8],235%
same,response vs control in vivo at 50 mg/kg,[1]; [3],305%
same,cure,[1]; dosage 25 mg/kg,1/6
same,cure,[1]; dosage 50 mg/kg,4/6
same,IC50,[2],< 0.3 mg/L
"COc1cc(NS(C)(=O)=O)ccc1Nc1c2cccc(C)c2nc2c1[nH]c1cccc(C)c12 [Compound 10, 6-(4-methanesulfonamide-2-methoxyanilino)-1,10-dimethylindolo[3,2-b]quinoline]",response vs control in vivo at 3.12 mg/kg,[1]; [9],109%
same,response vs control in vivo at 6.25 mg/kg,[1]; [9],145%
same,response vs control in vivo at 12.5 mg/kg,[1]; [7],165%
same,response vs control in vivo at 25 mg/kg,[1]; [8],203%
same,response vs control in vivo at 50 mg/kg,[1]; [3],223%
same,response vs control in vivo at 100 mg/kg,[1]; [4],260%
same,cure,[1]; dosage 100 mg/kg,1/6
same,IC50,[2],< 0.3 mg/L
"COc1cc(NS(C)(=O)=O)ccc1Nc1c2cccc(C)c2nc2c1[nH]c1cc(C)ccc12 [Compound 11, 6-(4-methanesulfonamide-2-methoxyanilino)-3,10-dimethylindolo[3,2-b]quinoline]",response vs control in vivo at 12.5 mg/kg,[1]; [7],315%
same,response vs control in vivo at 25 mg/kg,[1]; [8],294%
same,response vs control in vivo at 50 mg/kg,[1]; [3],315%
same,cure,[1]; dosage 12.5 mg/kg,1/6
same,cure,[1]; dosage 25 mg/kg,2/6
same,cure,[1]; dosage 50 mg/kg,1/6
same,IC50,[2],< 0.3 mg/L
COc1cc(NS(C)(=O)=O)ccc1Nc1c2ccccc2nc2c1[nH]c1ccc(Cl)cc12 [Compound 12],response vs control in vivo at 12.5 mg/kg,[1]; [7],231%
same,response vs control in vivo at 25 mg/kg,[1]; [8],242%
same,response vs control in vivo at 50 mg/kg,[1]; [3],315%
same,cure,[1]; dosage 25 mg/kg,1/6
same,cure,[1]; dosage 50 mg/kg,1/6
same,IC50,[2],< 0.3 mg/L
"COc1cc(NS(C)(=O)=O)ccc1Nc1c2ccccc2nc2c1[nH]c1ccc(C)cc12 [Compound 13, 6-(4-methanesulfonamide-2-methoxyanilino)-2-methylindolo[3,2-b]quinoline]",response vs control in vivo at 12.5 mg/kg,[1]; [7],189%
same,response vs control in vivo at 25 mg/kg,[1]; [8],192%
same,response vs control in vivo at 50 mg/kg,[1]; [3],115%
same,IC50,[2],< 0.3 mg/L
COC(=O)Nc1ccc(Nc2c3ccccc3nc3c2[nH]c2ccccc23)c(OC)c1 [Compound 14],response vs control in vivo at 50 mg/kg,[1]; [3],282%
same,response vs control in vivo at 100 mg/kg,[1]; [4],266%
same,response vs control in vivo at 200 mg/kg,[1]; [5],221%
same,cure,[1]; dosage 100 mg/kg,1/6
same,IC50,[2],< 0.3 mg/L
COc1cc(NC(C)=O)ccc1Nc1c2ccccc2nc2c1[nH]c1ccccc12 [Compound 15],response vs control in vivo at 50 mg/kg,[1]; [3],263%
same,response vs control in vivo at 100 mg/kg,[1]; [4],240%
same,response vs control in vivo at 200 mg/kg,[1]; [5],76%
same,cure,[1]; dosage 100 mg/kg,1/6
same,IC50,[2],< 0.3 mg/L
"COc1cc(NS(C)(=O)=O)ccc1Nc1c2ccccc2nc2c1[nH]c1cccc(C)c12 [Compound 16, 6-(4-methanesulfonamide-2-methoxyanilino)-1-methylindolo[3,2-b]quinoline]",response vs control in vivo at 12.5 mg/kg,[1]; [7],240%
same,response vs control in vivo at 25 mg/kg,[1]; [8],288%
same,response vs control in vivo at 50 mg/kg,[1]; [3],269%
same,cure,[1]; dosage 12.5 mg/kg,2/6
same,cure,[1]; dosage 25 mg/kg,2/6
same,IC50,[2],< 0.3 mg/L
"COc1cc(NS(C)(=O)=O)ccc1Nc1c2ccccc2nc2c1[nH]c1cc(C)ccc12 [Compound 17, 6-(4-methanesulfoneamide-2-methoxyanilino)-3-methylindolo[3,2-b]quinoline]",response vs control in vivo at 12.5 mg/kg,[1]; [7],153%
same,response vs control in vivo at 25 mg/kg,[1]; [8],77%
same,response vs control in vivo at 50 mg/kg,[1]; [3],75%
same,IC50,[2],< 0.3 mg/L
"COc1cc(NS(C)(=O)=O)ccc1Nc1c2ccccc2nc2c1[nH]c1ccc([N+](=O)[O-])cc12 [Compound 18, 6-(4-methanesulfonamide-2-methoxyanilino)-2-nitroindolo[3,2-b]quinoline]",cure,[1]; dosage 12.5 mg/kg,1/6
same,IC50,[2],< 0.3 mg/L
"COc1cc(NS(C)(=O)=O)ccc1Nc1c2ccccc2nc2c1[nH]c1ccc(F)cc12 [Compound 19, 2-fluoro-6-(4-methanesulfonamide-2-methoxyanilino)indolo[3,2-b]quinoline]",response vs control in vivo at 12.5 mg/kg,[1]; [7],313%
same,response vs control in vivo at 25 mg/kg,[1]; [8],252%
same,cure,[1]; dosage 12.5 mg/kg,3/6
same,cure,[1]; dosage 25 mg/kg,2/6
same,IC50,[2],< 0.3 mg/L
COc1cc(O)ccc1Nc1c2ccccc2nc2c1[nH]c1ccccc12 [Compound 20],response vs control in vivo at 12.5 mg/kg,[1]; [7],179%
same,response vs control in vivo at 25 mg/kg,[1]; [8],131%
same,cure,[1]; dosage 25 mg/kg,1/6
same,IC50,[2],< 0.3 mg/L
COc1cc(OC(C)=O)ccc1Nc1c2ccccc2nc2c1[nH]c1ccccc12 [Compound 21],response vs control in vivo at 25 mg/kg,[1]; [8],179%
same,response vs control in vivo at 50 mg/kg,[1]; [3],185%
same,cure,[1]; dosage 50 mg/kg,1/6
same,IC50,[2],< 0.3 mg/L
"COc1cc(NS(C)(=O)=O)ccc1Nc1c2ccccc2nc2c1[nH]c1ccc(N)cc12 [Compound 22, 2-amino-6-(4-methanesulfonamide-2-methoxyanilino)indolo[3,2-b]quinoline]",response vs control in vivo at 12.5 mg/kg,[1]; [7],171%
same,response vs control in vivo at 25 mg/kg,[1]; [8],200%
same,IC50,[2],< 0.3 mg/L
